Assay results taken from publication PMC8062851, “2-Methoxyestradiol and its derivatives inhibit store-operated Ca^2+ entry in T cells: Identification of a new and potent inhibitor” (Biochimica et Biophysica Acta. Molecular Cell Research, 2021).

Columns and labels:
Type in all cases: cell-based
[1] = test system: SOCE in rat TMBP cells; assay: SOCE inhibition, Ca2+ free/Ca2+ re-addition protocol in primary rat TMBP cells
Procedure: Jurkat T-lymphocytes, primary human CD4^+ T cells and H1299 cells were pelleted at 450 ×g for 5 min, rat TMBP at 300 ×g for 8 min at room temperature and were resuspended in 1 ml of either standard JMP medium (Jurkat, H1299 and human CD4^+ T cells) or standard DMEM based medium containing 10% fetal bovine serum (FBS) (v/v) (TMBP cells). Resting TMBP cells (day 5–7 after re-stimulation) after the second to fifth re-stimulation were thawed from liquid nitrogen 12 to 40 h prior to Fura2-loading. After pre-incubation for 5 min at 37 °C, cells were incubated with 4 μM Fura2-AM for 15 min at 37 °C. After addition of the dye, cells were kept in the dark. Afterwards, cells and the dye were diluted by addition of 4 ml standard medium and incubated for another 15 min. Cells were washed twice in Ca^2+ buffer (140 mM NaCl, 5 mM KCl, 1 mM MgSO4, 1 mM CaCl2, 1 mM NaH2PO4, 20 mM HEPES, 5.5 mM glucose; pH 7.4 (NaOH), sterile filtered) and were diluted to a concentration of 2*10^6 cells/ml. […]
10^6 Jurkat T-lymphocytes, H1299 cells, TMBP cells or 4*10^6 primary human CD4^+ T cells were added into a 10 × 10 mm quartz glass cuvette (Hellma Analytics, Germany) that was placed into a fluorescence spectrophotometer (F-2710, Hitachi, Japan). […] Fluorescence intensity was measured at an emission wavelength of 495 ± 5 nm for both excitation wavelengths. […]

[2] = molecular target: T1, ORAI1 (Homo sapiens, UniProt Q96D31); assay: Live cell Ca2+ imaging of G-GECO1.2-ORAI1 transfected Jurkat T cells; conditions: 10 μM
T1 construct: host or cells: Jurkat T-lymphocytes (electroporation)
Procedure: 12.5 ∗ 10^6 Jurkat T–lymphocytes were pelleted at 400 to 450 ×g for 5 min at room temperature and pellets were dissolved in 500 μl RPMI 1640 medium (Gibco) without phenol red containing L-glutamine, supplemented with 7.5% (v/v) NCS. 30 μg plasmid-DNA (G-GECO1.2-ORAI1) was transferred into a 4 mm electroporation cuvette (Biozym, Austria) and the Jurkat T-lymphocytes were added. G-GECO1.2-ORAI1 was a gift from Michael Cahalan, USA (Addgene plasmid # 73562). After an incubation of 5 min at 37 °C, cells were electroporated with 960 μF and 240 V (τ: […]). […]
17 to 22 h after electroporation, 5 ∗ 10^4 cells were pelleted at 400–450 ×g for 5 min at room temperature and cell pellets were dissolved in 50 μl nominal Ca^2+ free buffer. […] The fluorophore was excited at 488 nm every 2 s for 30 min and fluorescence was measured at 520 nm using Volocity (Version 6.3, Perkin Elmer).
Using ImageJ (Version 1.51 k, National Institutes of Health, USA) the pictures were analyzed for mean fluorescence in the outer ring of Jurkat T-lymphocytes employing ring-shaped regions of interest (ROIs). […] The mean background fluorescence values were subtracted from the signal in every image. For quantitative analysis, fluorescence intensities were normalized to the first fluorescence intensity (F/F0).

[3] = test system: SOCE in primary human CD4+ T cells; assay: SOCE inhibition, Ca2+ free/Ca2+ re-addition protocol in primary human CD4+ T cells
Procedure: Buffy coats were obtained from the blood bank of the University Medical Center Hamburg-Eppendorf (UKE) and peripheral blood mononuclear cells (PBMCs) were isolated by Biocoll density gradient centrifugation (Merck). Human CD4^+ T cells were isolated from PBMCs by negative selection using the EasySep Human CD4^+ T Cell Enrichment Kit (Stemcell Technologies) according to the manufacturer's protocol. The purity of the isolated cells was assessed by flow cytometry.
Jurkat T-lymphocytes, primary human CD4^+ T cells and H1299 cells were pelleted at 450 ×g for 5 min, rat TMBP at 300 ×g for 8 min at room temperature and were resuspended in 1 ml of either standard JMP medium (Jurkat, H1299 and human CD4^+ T cells) or standard DMEM based medium containing 10% fetal bovine serum (FBS) (v/v) (TMBP cells). Resting TMBP cells (day 5–7 after re-stimulation) after the second to fifth re-stimulation were thawed from liquid nitrogen 12 to 40 h prior to Fura2-loading. After pre-incubation for 5 min at 37 °C, cells were incubated with 4 μM Fura2-AM for 15 min at 37 °C. After addition of the dye, cells were kept in the dark. Afterwards, cells and the dye were diluted by addition of 4 ml standard medium and incubated for another 15 min. Cells were washed twice in Ca^2+ buffer (140 mM NaCl, 5 mM KCl, 1 mM MgSO4, 1 mM CaCl2, 1 mM NaH2PO4, 20 mM HEPES, 5.5 mM glucose; pH 7.4 (NaOH), sterile filtered) and were diluted to a concentration of 2*10^6 cells/ml. Subsequently, cells were kept at room temperature for 20 min for de-esterification before the start of the first measurement.
10^6 Jurkat T-lymphocytes, H1299 cells, TMBP cells or 4*10^6 primary human CD4^+ T cells were added into a 10 × 10 mm quartz glass cuvette (Hellma Analytics, Germany) that was placed into a fluorescence spectrophotometer (F-2710, Hitachi, Japan). […] Fluorescence intensity was measured at an emission wavelength of 495 ± 5 nm for both excitation wavelengths.

T1 sequence (Q96D31 whole entry): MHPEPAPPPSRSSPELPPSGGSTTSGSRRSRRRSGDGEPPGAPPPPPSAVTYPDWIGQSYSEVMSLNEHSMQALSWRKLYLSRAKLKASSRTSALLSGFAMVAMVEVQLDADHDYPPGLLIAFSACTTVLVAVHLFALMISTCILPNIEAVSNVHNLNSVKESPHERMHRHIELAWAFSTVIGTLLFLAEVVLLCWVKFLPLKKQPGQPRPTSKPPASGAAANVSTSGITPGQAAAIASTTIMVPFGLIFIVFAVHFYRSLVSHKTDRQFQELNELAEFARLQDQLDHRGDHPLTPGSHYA

**Q.** With `CCc1cc2c(cc1OS(N)(=O)=O)CC[C@@H]1[C@@H]2CC[C@]2(C)[C@@H](CC#N)CC[C@@H]12` [STX564, 2-ethyl-3-sulfamoyloxy-17β-cyanomethylestra-1,3,5(10)-triene] as the compound, how does the IC50 [1] read?
**A.** 800 nM

**Q.** What about the “SOCE by ORAI1 (G-GECO1.2-ORAI1 fluorescence)” value [2] of the same compound?
**A.** almost completely diminished

**Q.** What about the “Ca2+ release upon drug addition in absence of extracellular Ca2+” value ([3]; 10 μM) of the same compound?
**A.** Ca^2+ release was observed directly upon drug addition

**Q.** And the “steady-state plateau phase of Ca2+ entry” value ([3]; 10 μM)?
**A.** re-reached after a few min

**Q.** What about the “initial Ca2+ peak after Ca2+ re-addition and Ca2+ entry at later stages” value ([3]; 1 and 2 μM) of the same compound?
**A.** efficiently inhibited
